Laboratory results taken from patent US12144795B2, “Cannabidiol compositions having modified cannabinoid profiles” (priority 2018, dated 2024).

Columns and labels:
[1] = Stability studies of CBD prepared via Protocol 3 (crude, pure, 2x recrystallized; 5° C., 25° C./60% RH, 40° C./75% RH); format: physicochemical
[2] = HPLC method quantifying low levels of D9-THC in stored cannabidiol samples; format: physicochemical
Experimental: An analytical method using HPLC was developed to determine low levels of delta-9-tetrahydrocannabinol in cannabidiol samples. A Waters XBridge C18 3.5 μm, 3.0×150 mm column was employed and operated at a temperature of 30° C., UV wavelength of 225 nm, and injection size of 20 μL. Mobile Phase A was 0.02% (v/v) acetic acid in H2O, while mobile phase B was 0.02% (v/v) acetic acid in acetonitrile (ACN).
An aliquot of 0.5 mL of a D9-THC reference standard (Cerilliant, 1.0 mg/mL MeOH solution) was diluted in a 500-mL volumetric flask using sample diluent (70/30 Acetonitrile/H2O, v/v). The D9-THC concentration was 0.001 mg/mL in the standard stock solution, which corresponded with 200 ppm of D9-THC as compared to the CBD sample solution (nominal CBD concentration was 5.0 mg/mL).
An Aliquot of 5 mL of THC Stock Standard Solution was diluted in a 100-mL volumetric flask using the sample diluent. The D9-THC concentration was 0.00005 mg/mL in the working standard solution, corresponding with 10 ppm of D9-THC as compared to the CBD sample solution.
About 50 mg of cannabidiol sample was weighed into a 10-mL volumetric flask. The volumetric flask was diluted to volume using sample diluent and mixed well.
A minimum of 6 working standard solutions were injected prior to the sample set. Furthermore, a maximum of 6 injections of CBD sample were injected between bracketing working standard solutions.
The amount of THC in each sample was calculated using the following
For reference, each chromatogram in FIG. 6A through FIG. 6F is shown against a 10 ppm THC working standard. For samples 1, 2, and 3, roughly 50.28 mg, 50.77 mg, and 55.60 mg material was used.

C=C(C)[C@@H]1CCC(C)=C[C@H]1c1c(O)cc(CCCCC)cc1O [Pure CBD]
Related substances by HPLC (low level): Δ9-Tetrahydrocannabinol ([1]; 25° C./60% RH, 0 month): 26 ppm
Water content in % w/w ([1]; 25° C./60% RH, 0 month): <0.05%
Appearance ([1]; 25° C./60% RH, 1 month): Off-White Powder
Assay by HPLC ([1]; 25° C./60% RH, 1 month): 99.7%
Each unspecified impurity: RRT~1.927 ([1]; 25° C./60% RH, 1 month): RRT~1.927: 0.06%
Related substances by HPLC (low level): Δ8-Tetrahydrocannabinol ([1]; 25° C./60% RH, 1 month): 25 ppm
Related substances by HPLC (low level): Δ9-Tetrahydrocannabinol ([1]; 25° C./60% RH, 1 month): 21 ppm
Related substances by HPLC: 4-Monobromo-CBD ([1]; 25° C./60% RH, 1 month): <0.03% (ND)
Related substances by HPLC: Olivetol ([1]; 25° C./60% RH, 1 month): <0.03% (ND)
Related substances by HPLC: Sum of impurities, ≥0.05% ([1]; 25° C./60% RH, 1 month): 0.06%
Related substances by HPLC: Δ8-Tetrahydrocannabinol ([1]; 25° C./60% RH, 1 month): <0.02% (ND)
Related substances by HPLC: Δ9-Tetrahydrocannabinol ([1]; 25° C./60% RH, 1 month): <0.02% (ND)
Appearance ([1]; 25° C./60% RH, 2 months): Off-White Powder
Assay by HPLC ([1]; 25° C./60% RH, 2 months): 100.3%
Each unspecified impurity: RRT~1.935 ([1]; 25° C./60% RH, 2 months): RRT~1.935: 0.08%
Related substances by HPLC (low level): Δ8-Tetrahydrocannabinol ([1]; 25° C./60% RH, 2 months): 21 ppm
Related substances by HPLC (low level): Δ9-Tetrahydrocannabinol ([1]; 25° C./60% RH, 2 months): 14 ppm
Related substances by HPLC: 4-Monobromo-CBD ([1]; 25° C./60% RH, 2 months): <0.03% (ND)
Related substances by HPLC: Olivetol ([1]; 25° C./60% RH, 2 months): <0.03% (ND)
Related substances by HPLC: Sum of impurities, ≥0.05% ([1]; 25° C./60% RH, 2 months): 0.08%
Related substances by HPLC: Δ8-Tetrahydrocannabinol ([1]; 25° C./60% RH, 2 months): <0.02% (ND)
Related substances by HPLC: Δ9-Tetrahydrocannabinol ([1]; 25° C./60% RH, 2 months): <0.02% (ND)
Appearance ([1]; 25° C./60% RH, 3 months): Off-white
Assay by HPLC ([1]; 25° C./60% RH, 3 months): 98.5%
Each unspecified impurity: RRT~1.982 ([1]; 25° C./60% RH, 3 months): RRT~1.982: 0.03%
Related substances by HPLC (low level): Δ8-Tetrahydrocannabinol ([1]; 25° C./60% RH, 3 months): 36 ppm
Related substances by HPLC (low level): Δ9-Tetrahydrocannabinol ([1]; 25° C./60% RH, 3 months): <4 ppm (2 ppm)
Related substances by HPLC: 4-Monobromo-CBD ([1]; 25° C./60% RH, 3 months): <0.03% (ND)
Related substances by HPLC: Olivetol ([1]; 25° C./60% RH, 3 months): <0.03% (ND)
Related substances by HPLC: Sum of impurities, ≥0.05% ([1]; 25° C./60% RH, 3 months): <0.05%
Related substances by HPLC: Δ8-Tetrahydrocannabinol ([1]; 25° C./60% RH, 3 months): <0.02% (ND)
Related substances by HPLC: Δ9-Tetrahydrocannabinol ([1]; 25° C./60% RH, 3 months): <0.02% (ND)
Related substances by HPLC (low level): Δ9-Tetrahydrocannabinol ([1]; 40° C./75% RH, 0 month): 26 ppm
Water content in % w/w ([1]; 40° C./75% RH, 0 month): <0.05%
Appearance ([1]; 40° C./75% RH, 1 month): Off-White
Assay by HPLC ([1]; 40° C./75% RH, 1 month): 99.5%
Each unspecified impurity: RRT~1.929 ([1]; 40° C./75% RH, 1 month): 0.05%
Related substances by HPLC (low level): Δ8-Tetrahydrocannabinol ([1]; 40° C./75% RH, 1 month): 22 ppm
Related substances by HPLC (low level): Δ9-Tetrahydrocannabinol ([1]; 40° C./75% RH, 1 month): 14 ppm
Related substances by HPLC: 4-Monobromo-CBD ([1]; 40° C./75% RH, 1 month): <0.03% (ND)
Related substances by HPLC: Olivetol ([1]; 40° C./75% RH, 1 month): <0.03% (ND)
Related substances by HPLC: Sum of impurities, ≥0.05% ([1]; 40° C./75% RH, 1 month): 0.05%
Related substances by HPLC: Δ8-Tetrahydrocannabinol ([1]; 40° C./75% RH, 1 month): <0.02% (ND)
Related substances by HPLC: Δ9-Tetrahydrocannabinol ([1]; 40° C./75% RH, 1 month): <0.02% (ND)
Appearance ([1]; 40° C./75% RH, 2 months): Off-White
Assay by HPLC ([1]; 40° C./75% RH, 2 months): 100.2%
Each unspecified impurity: RRT~1.932 ([1]; 40° C./75% RH, 2 months): 0.07%
Related substances by HPLC (low level): Δ8-Tetrahydrocannabinol ([1]; 40° C./75% RH, 2 months): 20 ppm
Related substances by HPLC (low level): Δ9-Tetrahydrocannabinol ([1]; 40° C./75% RH, 2 months): 9 ppm
Related substances by HPLC: 4-Monobromo-CBD ([1]; 40° C./75% RH, 2 months): <0.03% (ND)
Related substances by HPLC: Olivetol ([1]; 40° C./75% RH, 2 months): <0.03% (ND)
Related substances by HPLC: Sum of impurities, ≥0.05% ([1]; 40° C./75% RH, 2 months): 0.07%
Related substances by HPLC: Δ8-Tetrahydrocannabinol ([1]; 40° C./75% RH, 2 months): <0.02% (ND)
Related substances by HPLC: Δ9-Tetrahydrocannabinol ([1]; 40° C./75% RH, 2 months): <0.02% (ND)
Appearance ([1]; 40° C./75% RH, 3 months): Off-white
Assay by HPLC ([1]; 40° C./75% RH, 3 months): 98.8%
Each unspecified impurity: RRT~1.983 ([1]; 40° C./75% RH, 3 months): 0.03%
Related substances by HPLC (low level): Δ8-Tetrahydrocannabinol ([1]; 40° C./75% RH, 3 months): 30 ppm
Related substances by HPLC (low level): Δ9-Tetrahydrocannabinol ([1]; 40° C./75% RH, 3 months): <4 ppm (ND)
Related substances by HPLC: 4-Monobromo-CBD ([1]; 40° C./75% RH, 3 months): <0.03% (ND)
Related substances by HPLC: Olivetol ([1]; 40° C./75% RH, 3 months): <0.03% (ND)
Related substances by HPLC: Sum of impurities, ≥0.05% ([1]; 40° C./75% RH, 3 months): <0.05%
Related substances by HPLC: Δ8-Tetrahydrocannabinol ([1]; 40° C./75% RH, 3 months): <0.02% (ND)
Related substances by HPLC: Δ9-Tetrahydrocannabinol ([1]; 40° C./75% RH, 3 months): <0.02% (ND)
Appearance ([1]; 40° C./75% RH, 5 months): Off-white
Assay by HPLC ([1]; 40° C./75% RH, 5 months): 99.9%
Each unspecified impurity: RRT~1.918 ([1]; 40° C./75% RH, 5 months): 0.04%
Related substances by HPLC (low level): Δ8-Tetrahydrocannabinol ([1]; 40° C./75% RH, 5 months): 36 ppm
Related substances by HPLC (low level): Δ9-Tetrahydrocannabinol ([1]; 40° C./75% RH, 5 months): 6 ppm
Related substances by HPLC: 4-Monobromo-CBD ([1]; 40° C./75% RH, 5 months): <0.03% (ND)
Related substances by HPLC: Olivetol ([1]; 40° C./75% RH, 5 months): <0.03% (ND)
Related substances by HPLC: Sum of impurities, ≥0.05% ([1]; 40° C./75% RH, 5 months): <0.05%
Related substances by HPLC: Δ8-Tetrahydrocannabinol ([1]; 40° C./75% RH, 5 months): <0.02% (ND)
Related substances by HPLC: Δ9-Tetrahydrocannabinol ([1]; 40° C./75% RH, 5 months): <0.02% (ND)

C=C(C)[C@@H]1CCC(C)=C[C@H]1c1c(O)cc(CCCCC)cc1O [Sample 3, Cannabidiol]
Result (D9-THC in ppm) ([2]; after storage for one month at room temperature (25° C.)): 5.1 ppm

C=C(C)[C@@H]1CCC(C)=C[C@H]1c1c(O)cc(CCCCC)cc1O [Sample 4, Cannabidiol]
Result (D9-THC in ppm) ([2]; after storage at −16° C. for two years): 8.3 ppm
